The results in this text go back to ChEMBL document CHEMBL1201862, “PubChem BioAssay data set” (2004).

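Step 1: Grow cells in 96-well plates. Step 2: Expose to compound for 48 hours at 5 concentrations. Step 3: Interpolate endpoints linearly; if unreached, use highest concentration. Abbreviation: GI50, concentration required for 50% inhibition of growth.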 The source made the active and inactive calls. No stated cut-off is given here; in the data, active = GI50 up to about 1.1 µM and inactive = higher. A value given as a limit tells only on which side of the number the result lay.

What all share (assay): NCI-60 cell line screen, 48 h
The subject of experiment [1] is SK-MEL-2.
The subject of experiment [2] is SNB-75.
In experiment [3] the test system is HT-29.
Experiment [4] deals with A549.
The subject of experiment [5] is SR.
For experiment [6], the system named is COLO 205.
Experiment [7] has as its system KM12.
In experiment [8] the test system is LOX IMVI.
The subject of experiment [9] is CCRF-CEM.
Experiment [10] has as its system OVCAR-4.
The test system of experiment [11] is ACHN.
The subject of experiment [12] is SF-295.
Experiment [13] deals with 786-0.
The test system of experiment [14] is UACC-62.
Experiment [15] relates to A498.
The subject of experiment [16] is HCT-15.
In experiment [17] the test system is NCI-H226.
In experiment [18] the test system is Malme-3M.

As to `O=[N+]([O-])C(=C(c1ccccc1)c1ccccc1)[N+](=O)[O-]`, the GI50 in experiment [1] is 2.43 µM (inactive); in experiment [2] it was 10.2 µM (inactive); in experiment [3] it was > 10 µM (inactive); in experiment [4], 23.1 µM (inactive); in experiment [5], 3.29 µM (inactive); in [6] it was 12.4 µM (inactive). Also, the GI50 was 15.5 µM (inactive) in [7]; 2.96 µM (inactive) in experiment [8]; 2.93 µM (inactive) in [9]; 14.5 µM (inactive) in [10]; 12.8 µM (inactive) in experiment [11]; 13.5 µM (inactive) in [12]. Moreover, the GI50 is 14.5 µM (inactive) in experiment [13]; 3.79 µM (inactive) in experiment [14]; 14.8 µM (inactive) in experiment [15]; 13.8 µM in experiment [16]; 31.1 µM (inactive) in experiment [17].

Turning to `CC12CCC(=O)N1c1ccc([N+](=O)[O-])cc1N2` (stereo not drawn), the GI50 is > 100 µM (inactive) in experiment [1]; > 100 µM (inactive) in [2]; > 100 µM (inactive) in experiment [3]; > 100 µM (inactive) in [18]; > 100 µM (inactive) in [4]; 71 µM (inactive) in [5]. In addition, the GI50 in [6], in experiment [7], in experiment [8], in experiment [9], in experiment [10] and in [11] was > 100 µM (inactive) each time. Also, the GI50 in experiment [12] was > 100 µM (inactive); in experiment [13], > 100 µM (inactive); in [14], > 100 µM (inactive); in experiment [15] it was > 100 µM (inactive); in experiment [16], more than 100 µM; in experiment [17], 42.3 µM (inactive).

Turning to `CSc1ccc2c(cc1=O)C(NC(=O)c1ccc(OC(C)=O)cc1)CCc1cc(O)c(O)c(O)c1-2` (stereo not drawn), the GI50 in [1] was 16.2 µM (inactive); in experiment [2], 20 µM (inactive); in [3], 19.6 µM (inactive); in experiment [18], 48.9 µM (inactive); in [4] it was 33.9 µM (inactive); in experiment [5], 7.94 µM (inactive). The GI50 in experiment [6] was 16.9 µM (inactive); in [7], 32 µM (inactive); in experiment [9], 3.43 µM (inactive); in [10], 9.02 µM (inactive); in [11], 66.8 µM (inactive); in experiment [12], 19.1 µM (inactive). Also, the GI50 in [13] was 31 µM (inactive); in [14], 18.5 µM (inactive); in [15], 57 µM (inactive); in experiment [16] it was 18.8 µM; in experiment [17] it was 20.9 µM (inactive).

As for `CN/N=C(\C)CC(=O)Nc1cccc(Cl)c1C`, the GI50 in experiment [1] was > 100 µM (inactive); in experiment [2], > 100 µM (inactive); in [3], > 100 µM (inactive); in [18], > 100 µM (inactive); in experiment [4] it was > 100 µM (inactive); in experiment [5], 28.6 µM (inactive). Besides, the GI50 in [6] is > 100 µM (inactive); in [7], > 100 µM (inactive); in experiment [8], > 100 µM (inactive); in experiment [9] it was 96.6 µM (inactive); in experiment [10], > 100 µM (inactive); in experiment [11] it was > 100 µM (inactive). The GI50 in [12] is > 100 µM (inactive); in experiment [13], > 100 µM (inactive); in experiment [14] it was > 100 µM (inactive); in experiment [15] it was > 100 µM (inactive); in experiment [16], more than 100 µM; in experiment [17], > 100 µM (inactive).

With `Cc1cc(N)c2cc(NC(=O)CCCCCCCCC(=O)Nc3ccc4nc(C)cc(N)c4c3)ccc2n1`, the GI50 in experiment [1] was > 100 µM (inactive); in experiment [2], 32.9 µM (inactive); in experiment [3] it was 32.9 µM (inactive); in [18], 25.4 µM (inactive); in [4], 6.35 µM (inactive); in [5], 11.7 µM (inactive). Moreover, the GI50 in experiment [6] is 18.1 µM (inactive); in experiment [7], 5.57 µM (inactive); in experiment [8], 22.2 µM (inactive); in experiment [9], 10.7 µM (inactive); in experiment [10] it was > 100 µM (inactive); in experiment [11], 69.5 µM (inactive). The GI50 is 43.2 µM (inactive) in experiment [12]; 28.2 µM (inactive) in experiment [13]; > 77.3 µM (inactive) in experiment [14]; 29.5 µM (inactive) in [15]; more than 100 µM in [16]; 2.43 µM (inactive) in [17].

Take `COc1c2c(cc3c1C(=O)Cc1ccc4c(c1CN(C)CC3)OCO4)OCO2`: the GI50 was > 100 µM (inactive) in experiment [1]; 26.4 µM (inactive) in experiment [2]; 29.4 µM (inactive) in experiment [3]; > 100 µM (inactive) in [18]; > 100 µM (inactive) in [4]; 43.2 µM (inactive) in experiment [5]. In addition, the GI50 in [6] is 43.1 µM (inactive); in experiment [7] it was > 100 µM (inactive); in experiment [8], > 100 µM (inactive); in [9] it was 70.5 µM (inactive); in experiment [10], 75.5 µM (inactive); in experiment [11], > 100 µM (inactive). Besides, the GI50 in experiment [12] was > 100 µM (inactive); in experiment [13] it was > 100 µM (inactive); in experiment [14], > 100 µM (inactive); in experiment [16], more than 100 µM; in [17], 59.2 µM (inactive).

As to `O=C(NCC#CCO)C(F)(F)F`, the GI50 in [1], in experiment [3], in experiment [18], in [4], in experiment [5] and in experiment [7] was > 100 µM (inactive) each time. In addition, the GI50 is > 100 µM (inactive) in [8]; > 100 µM (inactive) in experiment [10]; > 100 µM (inactive) in experiment [11]; > 10 µM (inactive) in experiment [12]; > 100 µM (inactive) in experiment [13]; > 100 µM (inactive) in experiment [14]. Also, the figures for the GI50 in [15], in [16] and in [17] were > 100 µM (inactive), more than 100 µM and > 100 µM (inactive), respectively.

As for `COCOCc1cc(OCc2ccccc2)c(OC)cc1Br`, the GI50 is > 100 µM (inactive) in experiment [1]; > 100 µM (inactive) in [2]; > 100 µM (inactive) in experiment [3]; > 100 µM (inactive) in [18]; > 100 µM (inactive) in experiment [4]; 63.1 µM (inactive) in experiment [5]. The GI50 was > 100 µM (inactive) in [6]; > 100 µM (inactive) in [7]; 52.8 µM (inactive) in [8]; > 100 µM (inactive) in experiment [9]; > 100 µM (inactive) in experiment [10]; 82.6 µM (inactive) in experiment [11]. Besides, the GI50 in [12] is > 100 µM (inactive); in [13] it was > 100 µM (inactive); in experiment [14], 71.9 µM (inactive); in experiment [15], > 100 µM (inactive); in experiment [16] it was 40.9 µM.

For `COc1ccc(-c2onc(-c3ccc([N+](=O)[O-])cc3)c2C2=NCCN2)cc1`, the GI50 in [1] is > 100 µM (inactive); in [2] it was 20.9 µM (inactive); in [3], 33.3 µM (inactive); in experiment [18], > 100 µM (inactive); in experiment [4], > 100 µM (inactive); in experiment [5], > 100 µM (inactive). Moreover, the GI50 in experiment [6] was > 100 µM (inactive); in [7] it was > 100 µM (inactive); in experiment [8], 79.6 µM (inactive); in experiment [9] it was > 100 µM (inactive); in experiment [10] it was 60.1 µM (inactive); in [11], 38.1 µM (inactive). In addition, the GI50 in experiment [12] is 35.2 µM (inactive); in [13], 17 µM (inactive); in experiment [14] it was > 100 µM (inactive); in [16], more than 100 µM; in experiment [17], 95.1 µM (inactive).

Regarding `CC(=O)Nc1ccc(OCC(O)CO)cc1` (stereo not drawn), the GI50 in [1], in [2], in [3], in experiment [18], in [4] and in experiment [5] was > 100 µM (inactive) in each case. In addition, the GI50 in [6] is > 100 µM (inactive); in [7], > 100 µM (inactive); in experiment [8] it was 25.5 µM (inactive); in experiment [9], 48.2 µM (inactive); in [10], > 100 µM (inactive); in experiment [11] it was > 100 µM (inactive). The GI50 is > 100 µM (inactive) in [12]; 25.1 µM (inactive) in experiment [13]; > 100 µM (inactive) in [14]; > 100 µM (inactive) in experiment [15]; 29.5 µM in experiment [16]; > 100 µM (inactive) in experiment [17].

Turning to `CC(=O)/C=C/c1ccc(C2CC(C)=Nc3c(ccc4c3C(=O)c3ccccc3C4=O)N2)cc1` (stereo not drawn), the GI50 was > 29.6 µM (inactive) in experiment [1]; 14.8 µM (inactive) in experiment [2]; > 100 µM (inactive) in experiment [3]; 89.1 µM (inactive) in experiment [18]; > 40.1 µM (inactive) in experiment [4]; > 100 µM (inactive) in [5]. Also, the GI50 in experiment [6] is 60.7 µM (inactive); in experiment [7], 3.37 µM (inactive); in experiment [8] it was 8.83 µM (inactive); in experiment [9], 1.28 µM (inactive); in experiment [10], > 85.9 µM (inactive); in experiment [11] it was 19 µM (inactive). The GI50 in [12] is > 100 µM (inactive); in experiment [13], 54.6 µM (inactive); in experiment [14] it was 59.7 µM (inactive); in experiment [15] it was 33.3 µM (inactive); in experiment [16], 27.2 µM; in experiment [17] it was 32.2 µM (inactive).

On to `C=CC1=CC(C)C[C@]1(O)C(=O)OC` (stereo partly drawn), for which the GI50 is < 0.01 µM (active) in [1]; < 0.01 µM (active) in experiment [2]; < 0.01 µM (active) in [3]; < 0.01 µM (active) in [18]; < 0.01 µM (active) in experiment [4]; 2.75 µM (inactive) in experiment [5]. The GI50 in experiment [6], in [7], in experiment [8], in [9], in [10] and in [11] was < 0.01 µM (active) throughout. Also, the GI50 in experiment [12] is < 0.01 µM (active); in experiment [13], < 0.01 µM (active); in [14], < 0.01 µM (active); in [15] it was < 0.01 µM (active); in experiment [16], more than 100 µM; in experiment [17], < 0.01 µM (active).
